{"source": "patent US10770169B2", "about": "“Method of providing a treatment to a subject based on a dynamic pathway map” (THE REGENTS OF THE UNIVERSITY OF CALIFORNIA, priority 2010, dated 2020)", "tested_on": "panel of 55 breast cancer cell lines", "assay": "Cell growth inhibition assay (Cell Titer Glo, 72 h, 9 doses; GI50, TGI, LC50)", "type": "cell-based, human", "conditions": "Homo sapiens, read-out: GI50 (converted)", "note": "Like-named read-outs stand apart in the source and are kept apart here.", "data": [{"smiles": "CC[C@@]1(O)C(=O)OCc2c1cc1n(c2=O)Cc2cc3c(CN(C)C)c(O)ccc3nc2-1", "note": "[Topotecan]", "values": [{"measurement": "GI50", "setting": "AU565, AU565 cell line, censored GI50 values", "result": 18.6, "unit": "nM"}, {"measurement": "GI50", "setting": "AU565, cell line AU565", "result": 18.6, "unit": "nM"}, {"measurement": "GI50", "setting": "BT-474, BT474 cell line, censored GI50 values", "result": 2510, "unit": "nM"}, {"measurement": "GI50", "setting": "BT-474, cell line BT474", "result": 2510, "unit": "nM"}, {"measurement": "GI50", "setting": "BT-483, BT483 cell line, censored GI50 values", "result": 16.2, "unit": "nM"}, {"measurement": "GI50", "setting": "BT-483, cell line BT483", "result": 16.2, "unit": "nM"}, {"measurement": "GI50", "setting": "CAMA-1, CAMA1 cell line, censored GI50 values", "result": 398, "unit": "nM"}, {"measurement": "GI50", "setting": "CAMA-1, cell line CAMA1", "result": 398, "unit": "nM"}, {"measurement": "GI50", "setting": "HCC38, HCC38 cell line, censored GI50 values", "result": 3.72, "unit": "nM"}, {"measurement": "GI50", "setting": "HCC38, cell line HCC38", "result": 3.72, "unit": "nM"}, {"measurement": "GI50", "setting": "HCC70, HCC70 cell line, censored GI50 values", "result": 19100, "unit": "nM"}, {"measurement": "GI50", "setting": "HCC70, cell line HCC70", "result": 19100, "unit": "nM"}, {"measurement": "GI50", "setting": "HCC202, HCC202 cell line, censored GI50 values", "result": 759, "unit": "nM"}, {"measurement": "GI50", "setting": "HCC202, cell line HCC202", "result": 759, "unit": "nM"}, {"measurement": "GI50", "setting": "HCC1143, HCC1143 cell line, censored GI50 values", "result": 257, "unit": "nM"}, {"measurement": "GI50", "setting": "HCC1143, cell line HCC1143", "result": 257, "unit": "nM"}, {"measurement": "GI50", "setting": "HCC1187, HCC1187 cell line, censored GI50 values", "result": 309, "unit": "nM"}, {"measurement": "GI50", "setting": "HCC1187, cell line HCC1187", "result": 309, "unit": "nM"}, {"measurement": "GI50", "setting": "HCC1395, HCC1395 cell line, censored GI50 values", "result": 15.1, "unit": "nM"}, {"measurement": "GI50", "setting": "HCC1395, cell line HCC1395", "result": 15.1, "unit": "nM"}, {"measurement": "GI50", "setting": "HCC1419, HCC1419 cell line, censored GI50 values", "result": 363, "unit": "nM"}, {"measurement": "GI50", "setting": "HCC1419, cell line HCC1419", "result": 363, "unit": "nM"}, {"measurement": "GI50", "setting": "HCC1428, HCC1428 cell line, censored GI50 values", "result": 447, "unit": "nM"}, {"measurement": "GI50", "setting": "HCC1428, cell line HCC1428", "result": 447, "unit": "nM"}, {"measurement": "GI50", "setting": "HCC1500, HCC1500 cell line, censored GI50 values", "result": 14.5, "unit": "nM"}, {"measurement": "GI50", "setting": "HCC1500, cell line HCC1500", "result": 14.5, "unit": "nM"}, {"measurement": "GI50", "setting": "HCC1806, HCC1806 cell line, censored GI50 values", "result": 20.4, "unit": "nM"}, {"measurement": "GI50", "setting": "HCC1806, cell line HCC1806", "result": 20.4, "unit": "nM"}, {"measurement": "GI50", "setting": "HCC1954, HCC1954 cell line, censored GI50 values", "result": 302, "unit": "nM"}, {"measurement": "GI50", "setting": "HCC1954, cell line HCC1954", "result": 302, "unit": "nM"}, {"measurement": "GI50", "setting": "HCC2185 cell line, censored GI50 values", "result": 40.7, "unit": "nM"}, {"measurement": "GI50", "setting": "HCC3153 cell line, censored GI50 values", "result": 209, "unit": "nM"}, {"measurement": "GI50", "setting": "LY2 cell line, censored GI50 values", "result": 257, "unit": "nM"}, {"measurement": "GI50", "setting": "MCF7, MCF7 cell line, censored GI50 values", "result": 1320, "unit": "nM"}, {"measurement": "GI50", "setting": "MCF7, cell line MCF7", "result": 1320, "unit": "nM"}, {"measurement": "GI50", "setting": "MDA-MB-134-VI, MDAMB134VI cell line, censored GI50 values", "result": 115, "unit": "nM"}, {"measurement": "GI50", "setting": "MDA-MB-157, MDAMB157 cell line, censored GI50 values", "result": 398, "unit": "nM"}, {"measurement": "GI50", "setting": "MDA-MB-157, cell line MDAMB157", "result": 398, "unit": "nM"}, {"measurement": "GI50", "setting": "MDA-MB-175-VII, MDAMB175VII cell line, censored GI50 values", "result": 2880, "unit": "nM"}, {"measurement": "GI50", "setting": "MDA-MB-231, MDAMB231 cell line, censored GI50 values", "result": 1170, "unit": "nM"}, {"measurement": "GI50", "setting": "MDA-MB-231, cell line MDAMB231", "result": 1170, "unit": "nM"}, {"measurement": "GI50", "setting": "MDA-MB-361, MDAMB361 cell line, censored GI50 values", "result": 525, "unit": "nM"}, {"measurement": "GI50", "setting": "MDA-MB-361, cell line MDAMB361", "result": 525, "unit": "nM"}, {"measurement": "GI50", "setting": "MDA-MB-415, MDAMB415 cell line, censored GI50 values", "result": 191, "unit": "nM"}, {"measurement": "GI50", "setting": "MDA-MB-415, cell line MDAMB415", "result": 191, "unit": "nM"}, {"measurement": "GI50", "setting": "MDA-MB-436, MDAMB436 cell line, censored GI50 values", "result": 30.2, "unit": "nM"}, {"measurement": "GI50", "setting": "MDA-MB-436, cell line MDAMB436", "result": 30.2, "unit": "nM"}, {"measurement": "GI50", "setting": "MDA-MB-453, MDAMB453 cell line, censored GI50 values", "result": 85.1, "unit": "nM"}, {"measurement": "GI50", "setting": "MDA-MB-453, cell line MDAMB453", "result": 85.1, "unit": "nM"}, {"measurement": "GI50", "setting": "MDA-MB-468, MDAMB468 cell line, censored GI50 values", "result": 45.7, "unit": "nM"}, {"measurement": "GI50", "setting": "MDA-MB-468, cell line MDAMB468", "result": 45.7, "unit": "nM"}, {"measurement": "GI50", "setting": "SK-BR-3, SKBR3 cell line, censored GI50 values", "result": 11.2, "unit": "nM"}, {"measurement": "GI50", "setting": "SK-BR-3, cell line SKBR3", "result": 11.2, "unit": "nM"}, {"measurement": "GI50", "setting": "SUM44PE cell line, censored GI50 values", "result": 372, "unit": "nM"}, {"measurement": "GI50", "setting": "SUM52PE, SUM52PE cell line, censored GI50 values", "result": 8.32, "unit": "nM"}, {"measurement": "GI50", "setting": "SUM52PE, cell line SUM52PE", "result": 8.32, "unit": "nM"}, {"measurement": "GI50", "setting": "SUM185PE, SUM185PE cell line, censored GI50 values", "result": 63.1, "unit": "nM"}, {"measurement": "GI50", "setting": "SUM185PE, cell line SUM185PE", "result": 63.1, "unit": "nM"}, {"measurement": "GI50", "setting": "SUM1315MO2, SUM1315MO2 cell line, censored GI50 values", "result": 8.32, "unit": "nM"}, {"measurement": "GI50", "setting": "SUM-159-PT, SUM159PT cell line, censored GI50 values", "result": 741, "unit": "nM"}, {"measurement": "GI50", "setting": "SUM-159-PT, cell line SUM159PT", "result": 741, "unit": "nM"}, {"measurement": "GI50", "setting": "UACC-812, UACC812 cell line, censored GI50 values", "result": 60.3, "unit": "nM"}, {"measurement": "GI50", "setting": "UACC-812, cell line UACC812", "result": 60.3, "unit": "nM"}, {"measurement": "GI50", "setting": "UACC-893, UACC893 cell line, censored GI50 values", "result": 347, "unit": "nM"}, {"measurement": "GI50", "setting": "UACC-893, cell line UACC893", "result": 347, "unit": "nM"}, {"measurement": "GI50", "setting": "ZR-75-1, ZR751 cell line, censored GI50 values", "result": 40.7, "unit": "nM"}, {"measurement": "GI50", "setting": "ZR-75-1, cell line ZR751", "result": 40.7, "unit": "nM"}, {"measurement": "GI50", "setting": "ZR-75B, ZR75B cell line, censored GI50 values", "result": 63.1, "unit": "nM"}, {"measurement": "GI50", "setting": "ZR-75B, cell line ZR75B", "result": 63.1, "unit": "nM"}, {"measurement": "GI50", "setting": "cell line HCC2185", "result": 40.7, "unit": "nM"}, {"measurement": "GI50", "setting": "cell line HCC3153", "result": 209, "unit": "nM"}, {"measurement": "GI50", "setting": "cell line LY2", "result": 257, "unit": "nM"}, {"measurement": "GI50", "setting": "cell line MDAMB134V", "result": 115, "unit": "nM"}, {"measurement": "GI50", "setting": "cell line MDAMB175V", "result": 2880, "unit": "nM"}, {"measurement": "GI50", "setting": "cell line SUM44PE", "result": 372, "unit": "nM"}, {"measurement": "GI50", "setting": "cell line SUM1315MO", "result": 8.32, "unit": "nM"}]}]}
